Laboratory results reported in ChEMBL document CHEMBL5154882, “Discovery of 4-Hydroxyquinazoline Derivatives as Small Molecular BET/PARP1 Inhibitors That Induce Defective Homologous Recombination and Lead to Synthetic Lethality for Triple-Negative Breast Cancer Therapy” (J Med Chem, 2022).
Calls of active or inactive are those of the source. The rule behind the calls is not given here.

How the values were obtained:
[1] = target: Poly [ADP-ribose] polymerase 1 (Homo sapiens, UniProt P09874); assay: Inhibition of PARP1 (unknown origin) at 1 uM relative to control
[2] = target: Bromodomain-containing protein 4 (Homo sapiens, UniProt O60885); assay: Inhibition of BRD4 (unknown origin) at 1 uM relative to control
[3] = tested on: MDA-MB-231; assay: Antiproliferative activity against human MDA-MB-231 cells assessed as reduction in cell viability incubated for 72 hrs by MTT assay; type: functional, cell-based; details: MDA-MB-231, 72 h
[4] = tested on: MDA-MB-468; assay: Antiproliferative activity against human MDA-MB-468 cells assessed as reduction in cell viability incubated for 72 hrs by MTT assay; type: functional, cell-based; details: MDA-MB-468, 72 h
[5] = tested on: MDA-MB-231; assay: Induction of DNA damage in human MDA-MB-231 cells assessed as increase in tail DNA measured at 3 uM after 3 days by comet assay; type: functional, cell-based; details: time 3.0 day
[6] = tested on: MDA-MB-468; assay: Induction of DNA damage in human MDA-MB-468 cells assessed as up-regulation of gammaH2AX expression level at 3 uM by DAPI staining based immunofluorescence assay; type: functional, cell-based

Sequence of Poly [ADP-ribose] polymerase 1 (P09874 whole entry): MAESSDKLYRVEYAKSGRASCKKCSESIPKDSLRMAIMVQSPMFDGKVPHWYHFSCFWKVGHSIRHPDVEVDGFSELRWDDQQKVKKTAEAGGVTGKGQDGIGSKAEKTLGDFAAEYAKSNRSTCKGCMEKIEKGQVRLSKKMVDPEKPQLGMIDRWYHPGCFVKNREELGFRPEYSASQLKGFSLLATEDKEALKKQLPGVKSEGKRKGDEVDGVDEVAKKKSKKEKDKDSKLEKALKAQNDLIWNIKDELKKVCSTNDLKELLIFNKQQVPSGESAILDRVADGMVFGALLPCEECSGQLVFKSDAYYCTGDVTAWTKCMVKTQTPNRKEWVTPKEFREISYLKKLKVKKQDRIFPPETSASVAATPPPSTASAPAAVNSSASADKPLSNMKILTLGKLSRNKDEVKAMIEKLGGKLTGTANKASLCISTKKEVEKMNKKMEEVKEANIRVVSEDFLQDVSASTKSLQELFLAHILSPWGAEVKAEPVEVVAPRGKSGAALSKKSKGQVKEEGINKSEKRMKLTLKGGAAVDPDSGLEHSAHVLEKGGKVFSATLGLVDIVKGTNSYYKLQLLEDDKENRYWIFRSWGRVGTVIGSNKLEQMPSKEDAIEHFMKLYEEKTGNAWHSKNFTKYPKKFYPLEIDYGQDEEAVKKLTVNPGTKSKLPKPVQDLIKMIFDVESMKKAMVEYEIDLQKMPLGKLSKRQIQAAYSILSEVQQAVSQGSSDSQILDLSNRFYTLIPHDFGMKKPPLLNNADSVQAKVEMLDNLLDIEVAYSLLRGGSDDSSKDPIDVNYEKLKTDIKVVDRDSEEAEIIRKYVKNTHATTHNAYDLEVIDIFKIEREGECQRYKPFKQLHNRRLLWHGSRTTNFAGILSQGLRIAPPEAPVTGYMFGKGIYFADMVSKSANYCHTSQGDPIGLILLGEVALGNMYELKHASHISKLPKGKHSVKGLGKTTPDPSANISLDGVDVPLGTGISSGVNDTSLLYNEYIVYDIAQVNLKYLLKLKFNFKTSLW

inhibition [1] | inhibition [2] | IC50 [3] | IC50 [4] | SMILES | Activity [5] | Activity [6]
33.9% | 43.3% | 35.1 µM | 34.7 µM | COc1cc(-c2nc3cccc(Cl)c3c(=O)[nH]2)ccc1Cc1n[nH]c(=O)c2ccccc12 |  | 
35.9% | 63.5% | 28.3 µM | 25.5 µM | COc1cc(OC)c2c(=O)[nH]c(-c3ccc(Cc4n[nH]c(=O)c5ccccc45)c(F)c3)nc2c1 |  | 
78.4% | 61.2% | 8.71 µM | 5.43 µM | COc1ccc2nc(-c3cccc(Cc4n[nH]c(=O)c5ccccc45)c3)[nH]c(=O)c2c1 |  | 
52.3% | 49.3% | 17.1 µM | 17 µM | O=c1[nH]c(-c2ccc(Cc3n[nH]c(=O)c4ccccc34)cc2)nc2ccc(Cl)cc12 |  | 
76.8% | 39.5% | 24.1 µM | 19.5 µM | O=c1[nH]c(-c2cc(Cc3n[nH]c(=O)c4ccccc34)ccc2F)nc2ccc(Br)cc12 |  | 
43.8% | 52.3% | 28.2 µM | 24.5 µM | Cc1cc(-c2nc3ccc(Br)cc3c(=O)[nH]2)ccc1Cc1n[nH]c(=O)c2ccccc12 |  | 
68.5% | 43.7% | 18.6 µM | 19.1 µM | O=c1[nH]c(-c2cc(Cc3n[nH]c(=O)c4ccccc34)ccc2F)nc2ccc(F)cc12 |  | 
77.5% | 51.2% | 13.2 µM | 12.1 µM | O=c1[nH]c(-c2cc(F)cc(Cc3n[nH]c(=O)c4ccccc34)c2)nc2ccc(F)cc12 |  | 
46.5% | 31.3% | > 40 µM | > 40 µM | COc1cc(-c2nc3ccccc3c(=O)[nH]2)ccc1Cc1n[nH]c(=O)c2ccccc12 |  | 
46.3% | 42.1% | 36 µM | 28.2 µM | Cc1cc(-c2nc3ccccc3c(=O)[nH]2)ccc1Cc1n[nH]c(=O)c2ccccc12 |  | 
37.1% | 45.8% | 30.6 µM | 35.6 µM | COc1cc(-c2nc3ccc(Cl)cc3c(=O)[nH]2)ccc1Cc1n[nH]c(=O)c2ccccc12 |  | 
75.1% | 52.8% | 13.4 µM | 14.7 µM | O=c1[nH]nc(Cc2cc(F)cc(-c3nc4cccc(Cl)c4c(=O)[nH]3)c2)c2ccccc12 |  | 
57.4% | 45.5% | 19.1 µM | 16 µM | COc1ccc2nc(-c3ccc(Cc4n[nH]c(=O)c5ccccc45)cc3)[nH]c(=O)c2c1 |  | 
47.2% | 35.1% | 31.5 µM | 29.7 µM | O=c1[nH]c(-c2ccc(Cc3n[nH]c(=O)c4ccccc34)c(F)c2)nc2ccccc12 |  | 
38.2% | 53.3% | 22 µM | 17.2 µM | O=c1[nH]c(-c2ccc(Cc3n[nH]c(=O)c4ccccc34)c(F)c2)nc2ccc(F)cc12 |  | 
58.5% | 48.9% | 21 µM | 15.4 µM | O=c1[nH]nc(Cc2ccc(-c3nc4cccc(Cl)c4c(=O)[nH]3)cc2)c2ccccc12 |  | 
72% | 47.5% | 22.1 µM | 18.6 µM | COc1cc(OC)c2nc(-c3cc(Cc4n[nH]c(=O)c5ccccc45)ccc3F)[nH]c(=O)c2c1 |  | 
82.8% | 63.4% | 9.87 µM | 7.49 µM | COc1cc(OC)c2c(=O)[nH]c(-c3cc(F)cc(Cc4n[nH]c(=O)c5ccccc45)c3)nc2c1 |  | 
63.8% | 33% | 25 µM | 25.4 µM | O=c1[nH]c(-c2ccc(Cc3n[nH]c(=O)c4ccccc34)cc2)nc2ccccc12 |  | 
43.2% | 72.2% | 15.5 µM | 12.8 µM | COc1cc(OC)c2c(=O)[nH]c(-c3cccc(Cc4n[nH]c(=O)c5ccc(Cl)cc45)c3)nc2c1 |  | 
37.2% | 34.4% | > 40 µM | > 40 µM | COc1cc(-c2nc3cccc(C)c3c(=O)[nH]2)ccc1Cc1n[nH]c(=O)c2ccccc12 |  | 
35.3% | 51% | 27.7 µM | 25.3 µM | COc1cc(OC)c2c(=O)[nH]c(-c3ccc(Cc4n[nH]c(=O)c5ccccc45)c(OC)c3)nc2c1 |  | 
 |  |  |  | O=C(c1cc(Cc2n[nH]c(=O)c3ccccc23)ccc1F)N1CCN(C(=O)C2CC2)CC1 | Active | Active
36.7% | 45.2% | 33.6 µM | 28.3 µM | COc1ccc2nc(-c3ccc(Cc4n[nH]c(=O)c5ccccc45)c(OC)c3)[nH]c(=O)c2c1 |  | 

inhibition [1] | inhibition [2] | IC50 [3] | IC50 [4] | SMILES | Activity [5] | Activity [6]
74.7% | 64.8% | 9.15 µM | 6.3 µM | O=c1[nH]c(-c2cccc(Cc3n[nH]c(=O)c4ccccc34)c2)nc2ccc(F)cc12 |  | 
52.6% | 31.7% | 28.9 µM | 24.1 µM | Cc1cccc2nc(-c3ccc(Cc4n[nH]c(=O)c5ccccc45)cc3)[nH]c(=O)c12 |  | 
70.7% | 41% | 22.8 µM | 24.2 µM | COc1ccc2nc(-c3cc(Cc4n[nH]c(=O)c5ccccc45)ccc3F)[nH]c(=O)c2c1 |  | 
47.6% | 36.8% | > 40 µM | 29.6 µM | Cc1cc(-c2nc3cccc(C)c3c(=O)[nH]2)ccc1Cc1n[nH]c(=O)c2ccccc12 |  | 
61% | 31.2% | 38.2 µM | 35.6 µM | Cc1cccc2c(=O)[nH]c(-c3cc(Cc4n[nH]c(=O)c5ccccc45)ccc3F)nc12 |  | 
72.1% | 51.3% | 15.3 µM | 12.3 µM | COc1ccc2nc(-c3cc(F)cc(Cc4n[nH]c(=O)c5ccccc45)c3)[nH]c(=O)c2c1 |  | 
59.2% | 58.2% | 17 µM | 14.1 µM | COc1cc(OC)c2c(=O)[nH]c(-c3ccc(Cc4n[nH]c(=O)c5ccccc45)cc3)nc2c1 |  | 
72.8% | 40.9% | 23.3 µM | 21.6 µM | O=c1[nH]nc(Cc2ccc(F)c(-c3nc4cccc(Cl)c4c(=O)[nH]3)c2)c2ccccc12 |  | 
76.4% | 47.8% | 15.4 µM | 15.4 µM | Cc1cccc2nc(-c3cc(F)cc(Cc4n[nH]c(=O)c5ccccc45)c3)[nH]c(=O)c12 |  | 
49.5% | 54.2% | 25.1 µM | 20.2 µM | Cc1cc(-c2nc3ccc(F)cc3c(=O)[nH]2)ccc1Cc1n[nH]c(=O)c2ccccc12 |  | 
78% | 54.5% | 15 µM | 12.3 µM | O=c1[nH]c(-c2cc(F)cc(Cc3n[nH]c(=O)c4ccccc34)c2)nc2ccc(Cl)cc12 |  | 
82.4% | 47.2% | 21.3 µM | 16.2 µM | O=c1[nH]c(-c2cccc(Cc3n[nH]c(=O)c4ccccc34)c2)nc2ccccc12 |  | 
38.5% | 53.4% | 22 µM | 21.2 µM | O=c1[nH]nc(Cc2ccc(-c3nc4cccc(Cl)c4c(=O)[nH]3)cc2F)c2ccccc12 |  | 
68.6% | 42.6% | 21.1 µM | 20.8 µM | O=c1[nH]c(-c2cc(Cc3n[nH]c(=O)c4ccccc34)ccc2F)nc2ccc(Cl)cc12 |  | 
34.8% | 38.2% | > 40 µM | > 40 µM | Cc1cccc2nc(-c3ccc(Cc4n[nH]c(=O)c5ccccc45)c(F)c3)[nH]c(=O)c12 |  | 
59.6% | 31.6% | 31.7 µM | 29.2 µM | O=c1[nH]c(-c2cc(Cc3n[nH]c(=O)c4ccccc34)ccc2F)nc2ccccc12 |  | 
75.3% | 64.8% | 11 µM | 7.3 µM | O=c1[nH]nc(Cc2cccc(-c3nc4cccc(Cl)c4c(=O)[nH]3)c2)c2ccccc12 |  | 
39.4% | 51.5% | 25.2 µM | 19.4 µM | COc1ccc2nc(-c3ccc(Cc4n[nH]c(=O)c5ccccc45)c(F)c3)[nH]c(=O)c2c1 |  | 
76.3% | 49.6% | 24.6 µM | 15.4 µM | Cc1cccc2nc(-c3cccc(Cc4n[nH]c(=O)c5ccccc45)c3)[nH]c(=O)c12 |  | 
58.2% | 47.2% | 16.5 µM | 14 µM | O=c1[nH]c(-c2ccc(Cc3n[nH]c(=O)c4ccccc34)cc2)nc2ccc(F)cc12 |  | 
36.1% | 41.5% | 26 µM | 31.4 µM | COc1cc(-c2nc3ccc(F)cc3c(=O)[nH]2)ccc1Cc1n[nH]c(=O)c2ccccc12 |  | 
55% | 67.8% | 17.9 µM | 13 µM | COc1cc(OC)c2nc(-c3ccc(Cc4n[nH]c(=O)c5ccccc45)c(C)c3)[nH]c(=O)c2c1 |  | 
84.5% | 45.5% | 17.7 µM | 14.2 µM | O=c1[nH]c(-c2cc(F)cc(Cc3n[nH]c(=O)c4ccccc34)c2)nc2ccccc12 |  | 
53.3% | 46% | 24.5 µM | 18.8 µM | O=c1[nH]c(-c2ccc(Cc3n[nH]c(=O)c4ccccc34)cc2)nc2ccc(Br)cc12 |  | 
